In BindingDB's records for doi:10.1016/j.bmcl.2009.09.017 (Pfizer, 2009) one finds IC50 data, which are given here for 11 molecules.

A word on the IC50: it is the concentration that gives 50% inhibition.

This assay is described as follows: Antagonist activity at P2Y12 receptor in human platelet rich plasma assessed as inhibition of ADP-induced platelet aggregation by light transmission aggregometry.
As to `CCCCCOC(=O)N1CCN(C(=O)[C@H](CCC(=O)O)NC(=O)c2cc(N3CCC(CN)CC3)nc(-c3ccccc3)n2)CC1` [(S)-4-(6-(4-(aminomethyl)piperidin-1-yl)-2-phenylpyrimidine-4-carboxamido)-5-oxo-5-(4-(pentyloxycarbonyl)piperazin-1-yl)pentanoic acid], the IC50 was found to be 490 nM.

For `CCCCCOC(=O)N1CCN(C(=O)[C@H](CCC(=O)O)NC(=O)c2cc(N3CCC(C(=O)N4CCC4)CC3)nc(-c3ccccc3)n2)CC1` [(S)-4-(6-(4-(azetidine-1-carbonyl)piperidin-1-yl)-2-phenylpyrimidine-4-carboxamido)-5-oxo-5-(4-(pentyloxycarbonyl)piperazin-1-yl)pentanoic acid], the half-inhibitory concentration (IC50) was 230 nM.

In the case of `CCCCCOC(=O)N1CCN(C(=O)[C@H](CCC(=O)O)NC(=O)c2cc(N3CCC(C(=O)N(CC)CC)CC3)nc(-c3ccccc3)n2)CC1` [(S)-4-(6-(4-(diethylcarbamoyl)piperidin-1-yl)-2-phenylpyrimidine-4-carboxamido)-5-oxo-5-(4-(pentyloxycarbonyl)piperazin-1-yl)pentanoic acid], the half-inhibitory concentration (IC50) was determined as 400 nM.

With `CCCCCOC(=O)N1CCN(C(=O)[C@H](CCC(=O)O)NC(=O)c2cc(N3CCN(C(=O)N(C)C)CC3)nc(-c3ccccc3)n2)CC1` [(S)-4-(6-(4-(dimethylcarbamoyl)piperazin-1-yl)-2-phenylpyrimidine-4-carboxamido)-5-oxo-5-(4-(pentyloxycarbonyl)piperazin-1-yl)pentanoic acid], the IC50 is 1600 nM.

Turning to `CCCCCOC(=O)N1CCN(C(=O)[C@H](CCC(=O)O)NC(=O)c2cc(N3CCC(C(=O)N(C)C)CC3)nc(-c3ccccc3)n2)CC1` [(S)-4-(6-(4-(dimethylcarbamoyl)piperidin-1-yl)-2-phenylpyrimidine-4-carboxamido)-5-oxo-5-(4-(pentyloxycarbonyl)piperazin-1-yl)pentanoic acid], the IC50 came to 370 nM.

With `CCCCCOC(=O)N1CCN(C(=O)[C@H](CCC(=O)O)NC(=O)c2cc(N3CCC(C(=O)NCC)CC3)nc(-c3ccccc3)n2)CC1` [(S)-4-(6-(4-(ethylcarbamoyl)piperidin-1-yl)-2-phenylpyrimidine-4-carboxamido)-5-oxo-5-(4-(pentyloxycarbonyl)piperazin-1-yl)pentanoic acid], the IC50 came to 930 nM.

On to `CCCCCOC(=O)N1CCN(C(=O)[C@H](CCC(=O)O)NC(=O)c2cc(N3CCC(COC)CC3)nc(-c3ccccc3)n2)CC1` [(S)-4-(6-(4-(methoxymethyl)piperidin-1-yl)-2-phenylpyrimidine-4-carboxamido)-5-oxo-5-(4-(pentyloxycarbonyl)piperazin-1-yl)pentanoic acid], for which the IC50 is 2000 nM.

Turning to `CCCCCOC(=O)N1CCN(C(=O)[C@H](CCC(=O)O)NC(=O)c2cc(N3CCN(C(C)=O)CC3)nc(-c3ccccc3)n2)CC1` [(S)-4-(6-(4-acetylpiperazin-1-yl)-2-phenylpyrimidine-4-carboxamido)-5-oxo-5-(4-(pentyloxycarbonyl)piperazin-1-yl)pentanoic acid], the IC50 came to 1500 nM.

Take `CCCCCOC(=O)N1CCN(C(=O)[C@H](CCC(=O)O)NC(=O)c2cc(N3CCC(N)CC3)nc(-c3ccccc3)n2)CC1` [(S)-4-(6-(4-aminopiperidin-1-yl)-2-phenylpyrimidine-4-carboxamido)-5-oxo-5-(4-(pentyloxycarbonyl)piperazin-1-yl)pentanoic acid]: the IC50 stood at 720 nM.

Turning to `CCCCCOC(=O)N1CCN(C(=O)[C@H](CCC(=O)O)NC(=O)c2cc(N3CCN(C(N)=O)CC3)nc(-c3ccccc3)n2)CC1` [(S)-4-(6-(4-carbamoylpiperazin-1-yl)-2-phenylpyrimidine-4-carboxamido)-5-oxo-5-(4-(pentyloxycarbonyl)piperazin-1-yl)pentanoic acid], the IC50 was found to be 940 nM.

As for `CCCCCOC(=O)N1CCN(C(=O)[C@H](CCC(=O)O)NC(=O)c2cc(N3CCC(C(N)=O)CC3)nc(-c3ccccc3)n2)CC1` [(S)-4-(6-(4-carbamoylpiperidin-1-yl)-2-phenylpyrimidine-4-carboxamido)-5-oxo-5-(4-(pentyloxycarbonyl)piperazin-1-yl)pentanoic acid], the IC50 stood at 690 nM.
